Laboratory results as given in US20240246964A1 (Arbutus Biopharma Corporation, priority 2021, published 2024).

Target: human PD-L1 (Homo sapiens (Human), UniProt Q9NZQ7)
Assay: T cell activation luciferase reporter cell culture system (T Cell Activation Assay)
Format: cell-based
Details: luciferase reporter assay; PD-L1 aAPC/CHO-K1 cells with PD-1 effector Jurkat T cells

Chain of human PD-L1 (Q9NZQ7 19-290): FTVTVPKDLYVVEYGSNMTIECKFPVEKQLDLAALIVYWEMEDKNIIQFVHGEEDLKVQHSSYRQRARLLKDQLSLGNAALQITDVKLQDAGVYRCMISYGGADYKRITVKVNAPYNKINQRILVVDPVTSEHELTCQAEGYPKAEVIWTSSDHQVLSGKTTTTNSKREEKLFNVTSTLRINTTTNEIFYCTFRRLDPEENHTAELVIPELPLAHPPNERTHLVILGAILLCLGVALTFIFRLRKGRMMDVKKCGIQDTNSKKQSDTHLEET

Row | EC50 [nM] | Structure (SMILES)
1 | ≥ 10000 | COc1cc(-c2nccc(-c3cccc(-c4ccc(CN5CCC(NC(C)=O)CC5)c(OC)n4)c3Cl)c2C)ccc1CN1CCC(NC(C)=O)CC1 [Example 466, N-(1-((6-(3-(2-(4-((4-Acetamidopiperidin-1-yl)methyl)-3-methoxyphenyl)-3-methylpyridin-4-yl)-2-chlorophenyl)-2-methoxypyridin-3-yl)methyl)piperidin-4-yl)acetamide]
2 | ≥ 10000 | COc1cc(-c2nccc(-c3cccc(-c4ccc(CN5CCC(NC(C)=O)CC5)c(OC)n4)c3C)c2Cl)ccc1CN1CCC(NC(C)=O)CC1 [Example 467, N-(1-((6-(3-(2-(4-((4-acetamidopiperidin-1-yl)methyl)-3-methoxyphenyl)-3-chloropyridin-4-yl)-2-methylphenyl)-2-methoxypyridin-3-yl)methyl)piperidin-4-yl)acetamide]
3 | 97.1 | COc1cc(-c2nccc(-c3cccc(-c4ccc(CN(C)C5CCOCC5)c(OC)n4)c3Cl)c2Cl)ccc1CNC1CCOCC1 [Example 468, N-((6-(2-chloro-3-(3-chloro-2-(3-methoxy-4-(((tetrahydro-2H-pyran-4-yl)amino)methyl)phenyl)pyridin-4-yl)phenyl)-2-methoxypyridin-3-yl)methyl)-N-methyltetrahydro-2H-pyran-4-amine]
4 | 79.3 | COc1cc(-c2nccc(-c3cccc(-c4ccc(CN(C)C5CCN(C(C)=O)CC5)c(OC)n4)c3Cl)c2Cl)ccc1CNC1CCOCC1 [Example 469, 1-(4-(((6-(2-chloro-3-(3-chloro-2-(3-methoxy-4-(((tetrahydro-2H-pyran-4-yl)amino)methyl)phenyl)pyridin-4-yl)phenyl)-2-methoxypyridin-3-yl)methyl)(methyl)amino)piperidin-1-yl)ethan-1-one]
5 | 31.7 | COc1cc(-c2nccc(-c3cccc(-c4ccc(CN(C)C[C@@H]5CCC(=O)N5)c(OC)n4)c3Cl)c2Cl)ccc1CN(C)C[C@@H]1CCC(=O)N1 [Example 472, (S)-5-((((6-(2-Chloro-3-(3-chloro-2-(3-methoxy-4-((methyl(((S)-5-oxopyrrolidin-2-yl)methyl)amino)methyl)phenyl)pyridin-4-yl)phenyl)-2-methoxypyridin-3-yl)methyl)(methyl)amino)methyl)pyrrolidin-2-one]
6 | 3770 | COc1nc(-c2cccc(-c3ccnc(-c4cc(OC)c5nc(CN6CCOCC6)cn5c4)c3Cl)c2Cl)ccc1CNC1CCN(C(C)=O)CC1 [Example 475, 1-(4-(((6-(2-Chloro-3-(3-chloro-2-(8-methoxy-2-(morpholinomethyl)imidazo[1,2-a]pyridin-6-yl)pyridin-4-yl)phenyl)-2-methoxypyridin-3-yl)methyl)amino)piperidin-1-yl)ethan-1-one]
7 | ≥ 10000 | COc1nc(-c2cccc(-c3ccnc(-c4cc(OC)c5nc(CN6CCC(F)(F)C6)cn5c4)c3Cl)c2Cl)ccc1CNC1CCN(C(C)=O)CC1 [Example 476, 1-(4-(((6-(2-Chloro-3-(3-chloro-2-(2-((3,3-difluoropyrrolidin-1-yl)methyl)-8-methoxyimidazo[1,2-a]pyridin-6-yl)pyridin-4-yl)phenyl)-2-methoxypyridin-3-yl)methyl)amino)piperidin-1-yl)ethan-1-one]
8 | 59.3 | COc1cc(-c2nccc(-c3cccc(-c4ccc(CNC5CCN(C(C)=O)CC5)c(OC)n4)c3Cl)c2Cl)ccc1CNCCN1CCNC(=O)C1 [Example 479, 4-(2-((4-(4-(3-(5-(((1-Acetylpiperidin-4-yl)amino)methyl)-6-methoxypyridin-2-yl)-2-chlorophenyl)-3-chloropyridin-2-yl)-2-methoxybenzyl)amino)ethyl)piperazin-2-one]
9 | 15.9 | COCC(=O)N1CCC(NCc2ccc(-c3cccc(-c4ccnc(-c5ccc(CNC6CCN(C(C)=O)CC6)c(OC)c5)c4Cl)c3Cl)nc2OC)CC1 [Example 481, 1-(4-(((6-(3-(2-(4-(((1-Acetylpiperidin-4-yl)amino)methyl)-3-methoxyphenyl)-3-chloropyridin-4-yl)-2-chlorophenyl)-2-methoxypyridin-3-yl)methyl)amino)piperidin-1-yl)-2-methoxyethan-1-one]
10 | 20.3 | COc1cc(-c2nccc(-c3cccc(-c4ccc(CNC5CCN(C(C)=O)CC5)c(OC)n4)c3Cl)c2Cl)ccc1CN1CC2(C1)CN(C(C)=O)C2 [Example 482, 1-(4-(((6-(3-(2-(4-((6-acetyl-2,6-diazaspiro[3.3]heptan-2-yl)methyl)-3-methoxyphenyl)-3-chloropyridin-4-yl)-2-chlorophenyl)-2-methoxypyridin-3-yl)methyl)amino)piperidin-1-yl)ethan-1-one]
11 | 195 | COc1cc(-c2nccc(-c3cccc(-c4ccc(CNC5CCSCC5)c(OC)n4)c3Cl)c2Cl)ccc1CNC1CCSCC1 [Example 484, N-((6-(2-Chloro-3-(3-chloro-2-(3-methoxy-4-(((tetrahydro-2H-thiopyran-4-yl)amino)methyl)phenyl)pyridin-4-yl)phenyl)-2-methoxypyridin-3-yl)methyl)tetrahydro-2H-thiopyran-4-amine]
12 | 212 | COc1cc(-c2nccc(-c3cccc(-c4ccc(CN5CC6(CCN(C(C)=O)CC6)C5)c(OC)n4)c3Cl)c2Cl)ccc1CN1CC2(CCN(C(C)=O)CC2)C1 [Example 485, 1-(2-((6-(3-(2-(4-((7-Acetyl-2,7-diazaspiro[3.5]nonan-2-yl)methyl)-3-methoxyphenyl)-3-chloropyridin-4-yl)-2-chlorophenyl)-2-methoxypyridin-3-yl)methyl)-2,7-diazaspiro[3.5]nonan-7-yl)ethan-1-one]
13 | 114 | COc1nc(-c2ccnc(-c3cccc4c3CC[C@@H]4Nc3nc(OC)c(CNC[C@@H]4CCC(=O)N4)cc3C(F)(F)F)c2Cl)ccc1CNC1CCN(C(C)=O)CC1 [Example 486, (S)-5-((((6-(((S)-4-(5-(((1-Acetylpiperidin-4-yl)amino)methyl)-3′-chloro-6-methoxy-[2,4′-bipyridin]-2′-yl)-2,3-dihydro-1H-inden-1-yl)amino)-2-methoxy-5-(trifluoromethyl)pyridin-3-yl)methyl)amino)methyl)pyrrolidin-2-one]
14 | 39.9 | COc1cc(-c2nccc(-c3cccc(-c4ccc(CN5CCC(O)CC5)c(OC)n4)c3Cl)c2Cl)ccc1CNC1CCN(C(C)=O)CC1 [Example 487, 1-(4-((4-(3-Chloro-4-(2-chloro-3-(5-((4-hydroxypiperidin-1-yl)methyl)-6-methoxypyridin-2-yl)phenyl)pyridin-2-yl)-2-methoxybenzyl)amino)piperidin-1-yl)ethan-1-one]
15 | 34 | COc1cc(-c2nccc(-c3cccc(-c4ccc(CN[C@H]5CC[C@H](OC)CC5)c(OC)n4)c3Cl)c2Cl)ccc1CNC1CCN(C(C)=O)CC1 [Example 488, 1-(4-((4-(3-Chloro-4-(2-chloro-3-(6-methoxy-5-((((1r,4r)-4-methoxycyclohexyl)amino)methyl)pyridin-2-yl)phenyl)pyridin-2-yl)-2-methoxybenzyl)amino)piperidin-1-yl)ethan-1-one]
16 | 28.5 | COc1cc(-c2nccc(-c3cccc(-c4ccc(CNC5CCN(C(C)=O)CC5)c(OC)n4)c3Cl)c2Cl)ccc1CN1CCC[C@@H](O)C1 [Example 489, (R)-1-(4-(((6-(2-Chloro-3-(3-chloro-2-(4-((3-hydroxypiperidin-1-yl)methyl)-3-methoxyphenyl)pyridin-4-yl)phenyl)-2-methoxypyridin-3-yl)methyl)amino)piperidin-1-yl)ethan-1-one]
17 | 17.9 | COCC(=O)N1CCC(NCc2ccc(-c3cccc(-c4ccnc(-c5ccc(CN6CC7(CNC(=O)C7)C6)c(OC)c5)c4Cl)c3Cl)nc2OC)CC1 [Example 490, 2-(4-(3-Chloro-4-(2-chloro-3-(6-methoxy-5-(((1-(2-methoxyacetyl)piperidin-4-yl)amino)methyl)pyridin-2-yl)phenyl)pyridin-2-yl)-2-methoxybenzyl)-2,6-diazaspiro[3.4]octan-7-one]
18 | 31.8 | COCC(=O)N1CCC(NCc2ccc(-c3cccc(-c4ccnc(-c5ccc(CN6CC7(C6)CN(C(C)=O)C7)c(OC)c5)c4Cl)c3Cl)nc2OC)CC1 [Example 491, 1-(4-(((6-(3-(2-(4-((6-Acetyl-2,6-diazaspiro[3.3]heptan-2-yl)methyl)-3-methoxyphenyl)-3-chloropyridin-4-yl)-2-chlorophenyl)-2-methoxypyridin-3-yl)methyl)amino)piperidin-1-yl)-2-methoxyethan-1-one]
19 | 18.5 | COc1cc(-c2nccc(-c3cccc(-c4ccc(CNC5CCOCC5)c(OC)n4)c3Cl)c2Cl)ccc1CN1CC2(C1)CN(C(C)=O)C2 [Example 492, 1-(6-(4-(3-chloro-4-(2-chloro-3-(6-methoxy-5-(((tetrahydro-2H-pyran-4-yl)amino)methyl)pyridin-2-yl)phenyl)pyridin-2-yl)-2-methoxybenzyl)-2,6-diazaspiro[3.3]heptan-2-yl)ethan-1-one]
20 | 22.8 | COc1cc(-c2nccc(-c3cccc(-c4ccc(CN5CC6(CNC(=O)C6)C5)c(OC)n4)c3Cl)c2Cl)ccc1CNC1CCOCC1 [Example 495, 2-((6-(2-Chloro-3-(3-chloro-2-(3-methoxy-4-(((tetrahydro-2H-pyran-4-yl)amino)methyl)phenyl)pyridin-4-yl)phenyl)-2-methoxypyridin-3-yl)methyl)-2,6-diazaspiro[3.4]octan-7-one]
21 | 29.1 | COc1cc(-c2nccc(-c3cccc(-c4ccc(CN5CC6(CNC(=O)C6)C5)c(OC)n4)c3Cl)c2Cl)ccc1CN[C@H]1C[C@](C)(O)C1 [Example 496, 2-((6-(2-Chloro-3-(3-chloro-2-(4-((((1r,3r)-3-hydroxy-3-methylcyclobutyl)amino)methyl)-3-methoxyphenyl)pyridin-4-yl)phenyl)-2-methoxypyridin-3-yl)methyl)-2,6-diazaspiro[3.4]octan-7-one]
22 | 30.2 | COc1cc(-c2nccc(-c3cccc(-c4ccc(CN5CC6(CNC(=O)C6)C5)c(OC)n4)c3Cl)c2Cl)ccc1CN1CC2(CC(O)C2)C1 [Example 497, 2-((6-(2-Chloro-3-(3-chloro-2-(4-((6-hydroxy-2-azaspiro[3.3]heptan-2-yl)methyl)-3-methoxyphenyl)pyridin-4-yl)phenyl)-2-methoxypyridin-3-yl)methyl)-2,6-diazaspiro[3.4]octan-7-one]
